The values below come from patent US20260083687A1, “COMPOUNDS FOR REDUCING LACTATION AND IMPROVING HEALTH” (AHV International B.V., priority 2022, published 2026).

In the assay the test system is cows (Holstein Friesians). The assay can be described thus: Treatment with DPD analogs (organosulfur compounds) and milk yield (Example 8). The class given is in vivo, cow. The settings on record: for % reduction after 24 h average (milk yield): 24 h after one oral gel capsule; for % reduction after 24 h average (milk yield) / % reduction after 48 h average (milk yield) / % reduction after 72 h average (milk yield) / % reduction after 96 h average (milk yield) / average reduction after 24, 48 and 72 h (%) (milk yield) / Average reduction after 24 and 48 h (%) (milk yield): dose equimolar to 80 ml di-n-propyl disulfide; for % reduction after 24 h average (milk yield) / % reduction after 48 h average (milk yield) / % reduction after 72 h average (milk yield) / % reduction after 96 h average (milk yield): negative value = increase in yield; for % reduction after 48 h average (milk yield): 48 h after one oral gel capsule; for % reduction after 72 h average (milk yield): 72 h after one oral gel capsule; for % reduction after 96 h average (milk yield): 96 h after one oral gel capsule; for average reduction after 24, 48 and 72 h (%) (milk yield): average of 24, 48 and 72 h after one oral gel capsule; for Average reduction after 24 and 48 h (%) (milk yield): average of 24 and 48 h after one oral gel capsule; for Milk yield (kg) Last milking: before administration, single oral gel capsule dose per cow (ml unless g): diethyl disulfide 63, di-n-propyl disulfide 80, diisopropyl disulfide 160, di-n-butyl disulfide 100, dibenzyl disulfide 102, diethyl sulfide 55, di-n-propyl sulfide 72, diisopropyl sulfide 74, di-n-butyl sulfide 90, dibenzyl sulfide 96 g, diphenyl sulfide 85, di-n-propyl trisulfide 98, di-n-propyl sulfone 6; for Milk yield (kg) Last milking / Average reduction after 24 and 48 h (%) / Milk yield (kg) After 24 h / Milk yield (kg) After 48 h / Milk yield (kg) After 72 h / Milk yield (kg) After 96 h / average reduction after 24, 48 and 72 h (%) / % reduction after 24 h / % reduction after 48 h / % reduction after 72 h / % reduction after 96 h: individual cows; for Average reduction after 24 and 48 h (%) / Milk yield (kg) After 24 h / Milk yield (kg) After 48 h / Milk yield (kg) After 72 h / Milk yield (kg) After 96 h / average reduction after 24, 48 and 72 h (%) / % reduction after 24 h / % reduction after 48 h / % reduction after 72 h / % reduction after 96 h: dose per compound as listed in E284; for % reduction after 24 h / % reduction after 48 h / % reduction after 72 h / % reduction after 96 h: vs milk yield before treatment. The protocol: Study design. 36 cows (Holstein Friesians) from 2 farms were used. The feed of the cows was composed of TMR, including corn and grass silage, supplemented with soya and minerals. […] The cows were milked in a milk robot. […] The cows were milked twice a day. The cows were housed in free stables. […] Placebo treatment corresponded to administration of two gel capsules containing 180 ml water.
For this study dosages synthetic compounds (>96% purity) as indicated in table 17 were administered to cows. The objective of this study was to compare the activity of a corresponding dose of the compounds expressed in mol, based on the number of moles that is present in 80 ml di-n-propyl disulfide at 20° C. The number of moles was converted to ml or grams of the tested compounds. For this purpose, the molecular weight and specific density were used in the calculations. The compounds were formulated in the gel capsules as indicated in the previous examples.
Before the various dosages were administered, the milk yields were monitored for at least 5 days.

Values joined by “and” are separate entries in the source; they are usually repeats but may differ in a detail not shown here. Identical values can stand only once.

As for “di-isopropyl thiosulfonate [Diisopropyl thiosulfonate]”, the “% reduction after 24 h average (milk yield)” value (“% reduction after 24 h average” for short) is reported as 28%, the “% reduction after 48 h average (milk yield)” value (“% reduction after 48 h average” for short) amounted to 26%, the “% reduction after 72 h average (milk yield)” value (“% reduction after 72 h average” for short) is on record as 9% and the “% reduction after 96 h average (milk yield)” value (“% reduction after 96 h average” for short) is on record as 0%. Moreover, the “average reduction after 24, 48 and 72 h (%) (milk yield)” value is listed as 21%; the “Average reduction after 24 and 48 h (%) (milk yield)” value worked out at 27%; the “Milk yield (kg) Last milking” value is reported as 28.9 kg; the “Average reduction after 24 and 48 h (%)” value was found to be 27%. Moreover, the “Milk yield (kg) After 24 h” value worked out at 20.8 kg, the “Milk yield (kg) After 48 h” value worked out at 21.4 kg, the “Milk yield (kg) After 72 h” value came out at 26.3 kg and the “Milk yield (kg) After 96 h” value amounted to 28.8 kg. For the same compound, the “average reduction after 24, 48 and 72 h (%)” value came out at 21%; the “% reduction after 24 h” value amounted to 28%; the “% reduction after 48 h” value is 26%; the “% reduction after 72 h” value was determined as 9%. In addition, the “% reduction after 96 h” value is 0%.

As to `O=S(=O)(Cc1ccccc1)SCc1ccccc1` [Dibenzyl thiosulfonate, di-benzyl thiosulfonate], the “% reduction after 24 h average” value amounted to 48%, the “% reduction after 48 h average” value is 48%, the “% reduction after 72 h average” value stood at 28% and the “% reduction after 96 h average” value came to 15%. Moreover, the “average reduction after 24, 48 and 72 h (%) (milk yield)” value was 41.3%; the “Average reduction after 24 and 48 h (%) (milk yield)” value is given as 48%; the “Milk yield (kg) Last milking” value stood at 27.8 kg; the “Average reduction after 24 and 48 h (%)” value is 48%. Moreover, the “Milk yield (kg) After 24 h” value was found to be 14.5 kg, the “Milk yield (kg) After 48 h” value stood at 14.6 kg, the “Milk yield (kg) After 72 h” value is given as 19.9 kg and the “Milk yield (kg) After 96 h” value was 23.5 kg. Besides, the “average reduction after 24, 48 and 72 h (%)” value came to 41.3%; the “% reduction after 24 h” value was found to be 48%; the “% reduction after 48 h” value was found to be 48%; the “% reduction after 72 h” value is given as 28%. Moreover, the “% reduction after 96 h” value is given as 15%.

Consider `[O-][S+](Cc1ccccc1)SCc1ccccc1` (centres unmarked) [Dibenzyl thiosulfinate, di-benzyl thiosulfinate], for which the “% reduction after 24 h average” value stood at 38%, the “% reduction after 48 h average” value was 37%, the “% reduction after 72 h average” value is on record as 27.5% and the “% reduction after 96 h average” value was 5%. Also, the “average reduction after 24, 48 and 72 h (%) (milk yield)” value amounted to 34.2%; the “Average reduction after 24 and 48 h (%) (milk yield)” value is on record as 37.5%; the “Milk yield (kg) Last milking” value was 30.3 kg and 27.9 kg; the “Average reduction after 24 and 48 h (%)” value was 32.5% and 42.5%. The “Milk yield (kg) After 24 h” value is 20.4 kg and 15.6 kg; the “Milk yield (kg) After 48 h” value was 20.7 kg and 15.9 kg; the “Milk yield (kg) After 72 h” value is 24.3 kg and 17.9 kg; the “Milk yield (kg) After 96 h” value was 28.1 kg and 27.3 kg. Besides, the “average reduction after 24, 48 and 72 h (%)” value is 28.5% and 39.7%; the “% reduction after 24 h” value was 33% and 43%; the “% reduction after 48 h” value is 32% and 42%; the “% reduction after 72 h” value is 20% and 35%. Further, the “% reduction after 96 h” value is 7% and 3%.

On to `CCCS(=O)(=O)CCC` [Di-n-propyl sulfone, di-n-propyl sulfone], for which the “Milk yield (kg) After 24 h” value is recorded as 13.7 kg, the “Milk yield (kg) After 48 h” value is recorded as 13.8 kg, the “Milk yield (kg) After 72 h” value is reported as 15.2 kg and the “Milk yield (kg) After 96 h” value amounted to 18.7 kg.

For `CC(C)SSC(C)C` [Diisopropyl disulfide, di-isopropyl disulfide], the “Milk yield (kg) After 24 h” value is listed as 13.6 kg, the “Milk yield (kg) After 48 h” value came to 15.4 kg, the “Milk yield (kg) After 72 h” value came to 18.5 kg and the “Milk yield (kg) After 96 h” value is 19.5 kg.
